We go through 1 compound from US10195311B2, “Local delivery of drugs from self assembled coatings” (Interface Biologics, Inc., priority 2009, dated 2019).

Holding throughout (assay type): physicochemical
Series [1] in a line: Drug shielding on Nylon 12 film, PTX release in porcine whole blood. Here is the method: (§1) Compounds 1, 7, and 14 (200 mg/mL) were dissolved in THF. PTX was added to each solution to make a 25 mg/mL solution. Nylon 12 film sheets were cut 1×1 cm size, blend solution was drop cast on the film sheet, dried in a 50° C. flow oven for 1 day. PTX alone was prepared the same way and used as the control. PBS pH 7.4 was pre-warmed to 37° C. Test articles and control articles were incubated in media (4 mL) at 37° C. for 10, 30, 60 and 120 minutes. At the end of each time point, media was exchanged and at the end of the study, the films were stripped with organic solvent, centrifuged, the supernatant collected, and solvent dried overnight at 60° C. The assessment of the drug shielding effect was analyzed by RP-HPLC with benzonitrile as the internal standard. 10 minute PTX release in PBS (ng/mL): Compound 1: 107.6, Compound 7: 79.7, Compound 14: 15.4, PTX alone: 651. The assessment of oligofluoro adhesion on film surface was done by NMR. A calibration curve for each compound was generated by NMR. Stripped coating was re-suspended in CDCl3 (1 mL) and NMR was performed. Quantity of remaining material was back calculated from NMR integration area. Percent remaining material after 120 minute incubation in PBS: Compound 1: 82.1, Compound 7: 85.5. Similar assessment of drug shielding on films was done with porcine whole blood. […]

A short description of series [2]: Drug shielding effect on Nylon 12 film, PTX release in PBS. The note with it: PBS pH 7.4, 37° C. Here is the method:
as §1

Series [3] in a line: Oligofluoro as solubilizing agent, drug release from coated nylon films in water. Particulars: drug at 4 wt %, nylon film, water 24 hours.
Protocol: Coating was made on nylon film by drop casting method. Control films with drug coated only was also prepared in a same manner. Coated nylon films were incubated in water for 24 hours to measure drug release.

SMILES strings stand for the structures.

On to `CC(=O)O[C@H]1C(=O)[C@@]2(C)[C@H]([C@H](OC(=O)c3ccccc3)[C@]3(O)C[C@H](OC(=O)[C@H](O)[C@@H](NC(=O)c4ccccc4)c4ccccc4)C(C)=C1C3(C)C)[C@]1(OC(C)=O)CO[C@@H]1C[C@@H]2O` [PTX, paclitaxel], for which the “10 minute PTX release in blood” value in series [1] was determined as 75.6%. Besides, the “10 minute PTX release in PBS” value in series [2] amounted to 651 ng/mL. The “Percentage drug released in water” value in series [3] worked out at 11%.
